From patent US12060310B2, “Compositions and methods of using itaconic acid derivatives” (ERGON PHARMACEUTICALS, LLC, priority 2018, dated 2024)
“Also recorded” adds a separate entry of the source.

Columns and labels:
[1] = system: C6-IRG1-9 rat glioma cells; experiment: C6-IRG1-9 rat glioma cell proliferation (CyQuant); assay type: cell-based; conditions: various concentrations, 48 hrs; FIG. 3
Procedure: Tumor Cell Proliferation Assay. This assay was used to assess the anti-tumor properties of a therapeutic agent in vitro. In a typical proliferation assay, cells were cultured to near confluency in the appropriate media. Subsequently, the cells were trypsinized and plated onto 96-well plates at 2,000 or 5,000 cell per well. The cells were cultured for 48 to 96 hours in the presence or absence of the therapeutic agent. Cell proliferation was then determined using spectrophotometry (MTT assay, BrdU assay) or fluorimetry (Cyquant assay).
Inhibition of C6-IRG1-9 Rat Glioma cell proliferation. C6-IRG1-9 cells are rat C6 glioma cells that have been transfected to overexpress IRG1. Overexpression of IRG1 is maintained by culturing the cells in DMEM media containing 0.55 μg/mL puromycin. For the proliferation assays, the cells were plated onto a 96-well plate at a density of 2,000 cells/well. The cells were allowed to adhere overnight; they were subsequently treated with various concentrations of compounds of Formula (2) for 48 hrs. At the end of the incubation period, the number of cells is assessed using the CyQuant Cell Proliferation kit (Thermo Fisher) according to the manufacturer's instructions. The results, shown in FIG. 3, indicate that compounds of Formula (2) are able to reduce or abrogate growth of C6-IRG1-9 cells. In FIG. 3, cell proliferation is expressed as % Untreated Control, defined as: (t−s)*100/(c−s), where t is the number of cells present in a treated well at the end of the incubation period, c is the number of cells present in an untreated well at the end of the incubation period, and s is the initial number of cells in the wells prior to initiation of treatment.

[2] = system: TNFα secretion from LPS-stimulated human monocyte derived macrophages (hMDMs); experiment: Inhibition of TNFα secretion (in vitro inflammation assay), ELISA; assay type: cell-based; conditions: 1 μg/mL LPS, 6 h, concentrations ≥500 μM, FIG. 2
Procedure: In Vitro Inflammation Assay. In vitro inflammation was assessed by measuring the concentration of TNFα in the conditioned media of macrophages stimulated with 0.1-1 μg/mL LPS in the presence or absence of the compound of interest after 4-6 hrs.
Inhibition of TNFα secretion. hMDMs were pretreated with various concentrations of Compound (6) for 15 min and then stimulated with 1 μg/mL LPS. Conditioned media were collected 6 h later and TNFα concentrations were determined by ELISA.

[3] = system: TCR-activated hCD8+ T cells; experiment: hCD8+ T cell differentiation into effector T cells (IFNγ and GZMB release, ELISA); assay type: cell-based, human
Procedure: Differentiation of T Cells. The ability of T cells to differentiate from a naïve to an effector state was assessed by measuring the levels of IFNγ or GZMB synthesis following activation of the cells using a cocktail of anti-CD2/anti-CD3/anti-CD28 antibodies. Expression of IFNγ, GZMB, and other effector cytokines was measured by determining their concentration in the conditioned media 24-72 hrs after initiation of activation or by estimating the % cells expressing these cytokines using fluorescence-activated cell sorting (FACS).
Augmentation of hCD8^+ T Cell Differentiation into Effector T Cells. Naïve CD8+ T cells were isolated from human buffy coats using magnetic separation and the appropriate kit from Miltenyi Biotec. Cells were then activated using a cocktail of anti-CD2/anti-CD3/anti-CD28 antibodies. Differentiation of the cells into effector T cells was assessed by determining the levels of IFNγ and GZMB released into the media at 24 and 72 hrs, respectively using appropriate ELISA kits. Cytokine concentrations were normalized per number of cells present and expressed as % Untreated Control.

[4] = system: M-MDSCs in CT26 tumors; experiment: Tumor immunophenotyping of CT26 tumors (MDSCs); assay type: in vivo, mouse; conditions: 0.2 mg/kg ip, twice a day; tumors 250-1500 mm^3; FIG. 7
Procedure: Tumor Immunophenotyping. To determine the effect of a therapeutic agent on a specific immune cell type in vivo, syngeneic tumor models were employed. In a typical experiment, tumors were allowed to grow to a certain size and were then treated for a specific number of days prior to termination. At the end of the experiment, animals were euthanized, tumors were excised and single cell suspensions were immediately obtained through dissociation of tumor tissues with collagenase. Tumor cell suspensions were then subject to FACS analysis in order to determine the presence of various biomarkers.
Tumor Immunophenotyping of CT26 Tumors. CT26-tumor bearing mice treated with either vehicle control or 0.2 mg/kg Compound (6) (ip, twice a day) were euthanized when the tumors had reached a size of 250-1500 mm^3. Tumors were excised and single cell suspensions were obtained using the tumor dissociation kit from Miltenyi Biotec per manufacturer's instructions. The suspensions were analyzed for the presence of MDSCs.

[5] = system: trimethylated lysine site 4 of histone 3 (H3K4me3); experiment: Epigenetic modification, Western immunoblotting of H3K4me3; assay type: cell-based, human; conditions: 10 μM, 72 hrs, TCR-activated hCD8+ T cells; FIG. 5
Procedure: Epigenetic Modifications. The ability of a therapeutic agent to alter acetylation and/or methylation of histones was assessed by Western Immunoblotting. Briefly, immune and other type cells were collected after being exposed to the therapeutic agent or vehicle control for a specific period of time, typically 24-72 hrs. They were then lysed and cell lysates from control and treated cells contained equal amounts of proteins were subjected to SDS-PAGE electrophoresis. The presence of acetylated and methylated histone sites was determined by Western Immunoblotting using appropriate antibodies.
Epigenetic Modification. TCR-activated hCD8^+ T cells were exposed to 0 or 10 µM Compound (6) for 72 hrs prior to lysing. Equal amounts of cell lysates were subjected to gel electrophoresis and Western immunoblotting against trimethylated lysine site 4 of histone 3 (H3K4me3). The experiment also included cell lysates from naïve cells. Image J was used for protein quantification. Western immunoblotting against histone 3 (H3) was also performed for normalization purposes. […] Exposure of the hCD8^+ T cells to 10 μM Compound (6) led to the depletion of trimethylated H3K4. H3K4me3 is commonly associated with activation of transcription.

[6] = system: CT26 mouse colorectal tumors; experiment: Survival of CT26 tumor-bearing mice (in vivo anti-tumor effect)
Procedure: In Vivo Anti-Tumor Effect. The anticancer properties of the therapeutic agent were evaluated in vivo by determining the ability of the agent to suppress tumor growth and/or increase survival of tumor-bearing animals. In a typical experiment, 0.1-1×10^6 tumor cells, suspended in PBS containing 20% Matrigel, were injected subcutaneously in the right flank of each mouse. When the tumors became palpable, the animals were randomized into different groups and treatment began. In vivo tests routinely included a vehicle control group and different doses and/or routes of administration of the therapeutic agent. Tumor growth was assessed using calipers and the following formula: Tumor Volume=length×width×width×½
The Kaplan-Meier analysis was used to estimate the survival probability of the tumor-bearing animals.
C57BL/6 mice were injected subcutaneously in the right flank with 1×10^5 CT26 mouse colorectal tumor cells, suspended in PBS containing 20% Matrigel. The tumors were allowed to grow to ˜100 mm^3. The mice were randomized into two groups (n=6 animals/group): one group received vehicle control and the other group was treated with i.p. injections of 0.2 mg/kg Compound (6) twice a week (Tuesday-Thursday). The experiment continued for 27 days, at which point the mortality rate of control animals was 80%. […] The experiment was repeated (FIG. 6B). In FIG. 6B, treated animals received oral administrations of 3 mg/kg Compound (6) twice a day.

[7] = system: TCR-activated hCD8+ T cells; experiment: CD8+ T cell proliferation (CFSE dilution, flow cytometry); assay type: cell-based, human; conditions: 10 nM; versus untreated TCR-activated control cells; FIG. 4
Procedure: Augmentation of CD8^+ T Cell Proliferation. Naïve hCD8^+ T cells were isolated from commercially available buffy coats using magnetic separation and the appropriate kit from Miltenyi Biotec. Cells were then subject to TCR activation using a cocktail of anti-CD2/anti-CD3/anti-CD28 antibodies. Untreated control and treated cells were included in the experiment. The cells were cultured for 72 hrs in TexMACS media (Miltenyi Biotec) without IL-2 and for an additional 48 hrs in TexMACS media containing 20 U human IL-2/mL. Cell division was assessed by flow cytometry using the carboxyfluorescein succimidyl ester (CFSE) dilution method.

[8] = target: T1, IRG1 (Homo sapiens, UniProt A6NK06); experiment: Itaconic acid synthesis by LPS-stimulated macrophages (inhibition of IRG1), GC-MS; assay type: cell-based; conditions: LPS-stimulated hMDMs; pretreated 50, 100, 500 μM for 15 min, LPS 8 hrs; FIG. 1
T1 construct: Human monocytes, isolated from peripheral blood and differentiated into macrophages; endogenous in cells; host or cells: human monocyte-derived macrophages (hMDMs), M-CSF differentiated, LPS stimulated
T1 sequence (A6NK06 1-481): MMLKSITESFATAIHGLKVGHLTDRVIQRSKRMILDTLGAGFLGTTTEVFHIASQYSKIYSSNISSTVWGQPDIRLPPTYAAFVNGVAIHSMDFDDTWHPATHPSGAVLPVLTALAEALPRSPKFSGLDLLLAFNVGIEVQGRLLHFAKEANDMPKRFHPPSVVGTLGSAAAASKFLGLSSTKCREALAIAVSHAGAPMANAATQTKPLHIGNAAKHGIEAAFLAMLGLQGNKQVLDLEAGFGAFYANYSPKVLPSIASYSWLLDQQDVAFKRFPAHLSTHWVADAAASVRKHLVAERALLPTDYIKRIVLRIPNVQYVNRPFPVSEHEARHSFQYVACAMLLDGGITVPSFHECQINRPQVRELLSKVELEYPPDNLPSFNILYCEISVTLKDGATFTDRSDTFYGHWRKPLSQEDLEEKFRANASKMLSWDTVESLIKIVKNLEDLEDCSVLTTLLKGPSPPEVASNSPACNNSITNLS
Procedure: Inhibition of IRG1. Itaconic acid levels are a measure of IRG1 expression/activity. To determine the activity of IRG, hMDMs were stimulated with 100 ng/ml LPS for 8 hrs in the presence or absence of the therapeutic agent. Gas chromatography-mass spectroscopy (GC-MS) was used to estimate the intracellular and extracellular concentration of the itaconic acid. In a typical assay, 1-5×10^6 cells were plated onto a 6-well plate and allowed to adhere overnight. The cells were then stimulated with 0.1-1 μg/mL LPS in the presence or absence of the compound of interest for 8 hrs. The cells were then washed and metabolites were extracted using methanol/water and acetonitrile additions. The aqueous phase of the mixture was dried and metabolites present were derivatized prior to the detection by GC-MS.
Itaconic Acid Synthesis by LPS-Stimulated Macrophages after Treatment with Compound (6). Human monocytes, isolated from peripheral blood and differentiated into macrophages in the presence of 100 ng/ml monocyte colony-stimulating factor (M-CSF) for 5 days, were plated onto a 6-well plate at a density of 1×10^6 cells/well. The cells were allowed to adhere overnight. […] Derivatized metabolites were analyzed by GC-MS. The amount of itaconic acid present in the samples was determined after peak integration. […]

[9] = 3 mg/kg oral twice a day, end of experiment

**Q.** `C=CCC(C(=O)O)/C(=C/c1ccc(F)cc1)C(=O)O` (stereo not drawn) [(7), 2-[(4-flurophenyl)methylidene]-3-(prop-2-ene-1-yl)butanedioic acid] was tested. Which “cell proliferation of C6-IRG1-9 cells” value [1] did it give?
**A.** inhibition of proliferation

**Q.** What does the source list for `O=C(O)/C(=C\c1ccc(F)cc1)C(Cc1ccccc1)C(=O)O` (stereo not drawn) [Compound (6), 2-benzyl-3-[(4-flurophenyl)methylidene]butanedioic acid]?
**A.** secretion of TNFα [2]: inhibits in vitro inflammation; also recorded: reduced secretion; cell proliferation of C6-IRG1-9 cells [1]: inhibition of proliferation; IFNγ synthesis ([3]; high (>100 μM) concentrations): decrease; production of GZMB ([3]; low concentrations): increase production; synthesis of INFγ following TCR activation ([3]; low concentrations, range of 0.1 nM to 100 µM): increased synthesis; intratumoral frequency of M-MDSCs [4]: significantly reduces; trimethylated H3K4 (H3K4me3/H3 ratio) [5]: depletion; survival (Kaplan-Meier) of CT26 tumor-bearing mice ([6]; 0.2 mg/kg i.p. twice a week, 27 days, versus vehicle control, FIG. 6A): survival advantage; animals with complete tumor regression [6, 9]: ⅙; mice exhibiting slower tumor growth [6, 9]: ⅚; survival of CT26 tumor-bearing mice ([6]; 3 mg/kg orally twice a day, FIG. 6B): increased survival; proliferation of hCD8+ T cells [7]: increased proliferation; extracellular levels of itaconic acid [8]: suppressed; intracellular levels of itaconic acid [8]: suppressed

**Q.** For `CC(C)=C(CC(=O)O)C(=O)O` [(3), 2-(propan-2-ylidene)butanedioic acid], which “cell proliferation of C6-IRG1-9 cells” value [1] is on record?
**A.** inhibition of proliferation

**Q.** `O=C(O)CC(=Cc1ccccc1)C(=O)O` [(4), 2-(phenylmethylidene)butanedioic acid] was tested. Which “cell proliferation of C6-IRG1-9 cells” value [1] did it give?
**A.** inhibition of proliferation

**Q.** With `O=C(O)CC(=Cc1ccc(F)cc1)C(=O)O` [Compound (5), 2-[(4-fluorophenyl)methylidene]butanedioic acid] as the compound, how does the “cell proliferation of C6-IRG1-9 cells” value [1] read?
**A.** inhibition of proliferation
